Tested on: LNCaP; call rule not given here
Test: Antiproliferative activity against human LNCaP cell line
Assay type: functional, cell-based
[1] = Homo sapiens, LNCaP, read-out: IC50

COc1cc2c(cc1O)CC[C@@H]1[C@@H]2CC[C@]2(C)[C@@H](OC(=O)CNC(=O)OCC3c4ccccc4-c4ccccc43)CC[C@@H]12
IC50 (lncap): Not Active

COc1cc2c(cc1O)CC[C@@H]1[C@@H]2CC[C@]2(C)[C@@H](OC(=O)CNC(=O)CCCCCNC(=O)CCCC[C@@H]3SC[C@@H]4NC(=O)N[C@@H]43)CC[C@@H]12
IC50 [1]: 600 nM

COc1cc2c(cc1O)CC[C@@H]1[C@@H]2CC[C@]2(C)[C@@H](OC(=O)CNC(=O)CCCCCNC(=O)OC(C)(C)C)CC[C@@H]12
IC50 [1]: 600 nM

COc1cc2c(cc1O)CC[C@@H]1[C@@H]2CC[C@]2(C)[C@@H](O)CC[C@@H]12 [2-METHOXYESTRADIOL]
IC50 [1]: 500 nM

COc1cc2c(cc1O)CC[C@@H]1[C@@H]2CC[C@]2(C)[C@@H](OC(=O)CNC(=O)CCCCCN)CC[C@@H]12
IC50 [1]: 600 nM

COc1cc2c(cc1O)CC[C@@H]1[C@@H]2CC[C@]2(C)[C@@H](OC(=O)CN)CC[C@@H]12
IC50 [1]: 900 nM
